In patent publication US6559177B2, “5, 11-Dioxa-benzo[b]fluoren-10-one and 5-oxa-11-thia-benzo[b]fluoren-10-ones as estrogenic agents” (Wyeth, priority 2001, dated 2003):
Read-outs that look alike come from different tables or passages of the source.

Experiments:
[1] = target: T1, human ERβ (Homo sapiens, UniProt Q92731); experiment: Competition with [3H]-17β-estradiol for binding to ERβ ligand binding domain
T1 construct: made in house; host or cells: E. coli (crude lysate)
Experimental: (§1) This test procedure provides the methodology for one to determine whether a particular compound binds to the estrogen receptor (and is therefore “estrogenic”) and whether there is selectivity for ERα or ERβ. […] The procedure used is briefly described below. A crude lysate of E. coli expressing the estrogen receptor ligand binding domains (D,E, & F) of human ERα or ERβ was prepared. Both receptors and compounds were diluted in 1× Dulbecco's PBS (DPBS) supplemented with 1 mM EDTA. […] After between 5 and 15 hours at room temperature, the plates were washed with DPBS/1 mM EDTA and bound radioactivity determined by liquid scintillation counting.

[2] = target: T2, human ERα (Homo sapiens, UniProt P03372); experiment: Competition with [3H]-17β-estradiol for binding to ERα ligand binding domain; conditions: E. coli lysate expressing ER ligand binding domains (D,E,&F); 2 nM [3H]-17β-estradiol; 5-15 hours at room temperature
T2 construct: made in house; host or cells: E. coli (crude lysate)
T2 sequence (P03372 311-547 limits assumed): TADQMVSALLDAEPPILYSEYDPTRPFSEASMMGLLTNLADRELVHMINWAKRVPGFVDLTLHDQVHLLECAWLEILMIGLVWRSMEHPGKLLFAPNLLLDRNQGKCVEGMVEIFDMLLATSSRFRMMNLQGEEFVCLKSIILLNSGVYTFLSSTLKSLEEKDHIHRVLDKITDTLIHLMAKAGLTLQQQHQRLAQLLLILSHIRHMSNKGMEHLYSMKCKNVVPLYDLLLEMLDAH
Experimental: as §1

[3] = E. coli lysate expressing ER ligand binding domains (D,E,&F); 2 nM [3H]-17β-estradiol; 5-15 hours at room temperature; read-out: ERβ IC50
[4] = read-out: ERβ IC50; E. coli lysate expressing ER ligand binding domains (D,E,&F); 2 nM [3H]-17β-estradiol; 5-15 hours at room temperature

T1 sequence (Q92731 264-498 limits assumed): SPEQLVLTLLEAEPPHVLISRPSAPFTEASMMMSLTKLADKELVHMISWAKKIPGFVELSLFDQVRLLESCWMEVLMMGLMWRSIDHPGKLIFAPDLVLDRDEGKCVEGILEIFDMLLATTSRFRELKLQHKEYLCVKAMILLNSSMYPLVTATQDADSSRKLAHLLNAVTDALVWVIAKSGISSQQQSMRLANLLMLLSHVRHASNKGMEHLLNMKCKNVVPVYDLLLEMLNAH

O=c1c2cc(O)ccc2oc2c1oc1cc(O)ccc12 [2,8-Dihydroxy-5,11-dioxa[b]fluoren-10-one]
IC50 [1, 3]: 192 nM
IC50 [2]: 1500 nM

O=c1c2oc3ccc(O)cc3c2oc2cc(O)cc(O)c12 [3,7,9-Trihydroxy-5,11-dioxa-benzo[b]fluoren-10-one]
IC50 [1, 3]: 70 nM
IC50 [2]: 2950 nM

O=c1c2ccc(O)cc2oc2c1oc1ccc(O)cc12 [3,7-Dihydroxy-5,11-dioxa[b]fluoren-10-one]
IC50 [1, 3]: 850 nM

O=c1c2oc3ccccc3c2oc2cc(O)cc(O)c12 [7,9-Dihydroxy-5,11-dioxa-benzo[b]fluoren-10-one]
IC50 [1, 4]: 3190 nM

O=c1c2cc(O)ccc2oc2c1oc1ccc(O)cc12 [3,8-Dihydroxy-5,11-dioxa[b]fluoren-10-one]
IC50 [1, 3]: 44 nM
IC50 [2]: 188 nM

O=c1c2ccc(O)cc2oc2c1oc1cc(O)ccc12 [2,7-Dihydroxy-5,11-dioxa-benzo[b]fluoren-10-one]
IC50 [1, 3]: 32 nM
IC50 [2]: 550 nM

O=c1c2sc3ccccc3c2oc2cc(O)cc(O)c12 [7,9-Dihydroxy-5-oxa-11-thia-benzo[b]fluoren-10-one]
IC50 [1, 3]: 760 nM
IC50 [2]: 3670 nM

O=c1c2ccc(O)cc2oc2c1oc1c3ccccc3ccc21 [9-Hydroxy-7,13-dioxa-dibenzo[a,h]fluoren-12-one]
IC50 [1, 3]: 2710 nM
IC50 [2]: > 5000 nM

O=c1c2ccc(O)cc2oc2c1sc1ccccc12 [7-Hydroxy-5-oxa-11-thia-benzo[b]fluoren-10-one]
IC50 [1, 4]: 2930 nM
